≈ marks a conversion by molar mass, not a printed value.
Assays:
VZV strain Ellen = assay: VZV Antiviral (ELISA) assay; assay type: cell-based; details: for IC50: Human alphaherpesvirus 3, VZV strain Ellen in HFF cells, read-out: IC50 (ug/ml) VZV; for inhibition at 10 µg/mL: Human alphaherpesvirus 3, read-out: % inhibition 10 ug/ml VZV, at 10 ug/ml, VZV strain Ellen in HFF cells; for IC50 (ug/ml) VZV / % inhibition 10 ug/ml VZV: VZV strain Ellen in HFF cells; for % inhibition 10 ug/ml VZV: at 10 ug/ml
In short: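 First, fibroblasts are infected at multiplicity below 0.1 and kept overnight. The harvested cell mixture then goes onto compound-containing wells for three days at 37° C. Finally, cells are fixed and viral gpII is measured by fluorogenic ELISA.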

HSV-1 = assay: HSV Antiviral (ELISA) assay; assay type: cell-based; details: for IC50: Human alphaherpesvirus 1, HSV-1 in Vero cells, read-out: IC50 (ug/ml) HSV; for IC50 (ug/ml) HSV: HSV-1 in Vero cells
In short: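 Vero cells in DMEM/2% FBS pretreated with compound 30 min before HSV-1 infection (MOI 0.006), then ~24 h at 37 °C. Viral gD detected by ELISA with β-galactosidase secondary and 4-methylumbelliferyl-galactoside (ex 365/em 450 nm); IC50 from fluorescence versus untreated infected cells.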

[1] = system: HCMV recombinant mutant virus (RV145); assay: HCMV microtiter plate assay (beta-glucuronidase reporter); assay type: cell-based, Human Cytomegalovirus; details: for IC50: Human betaherpesvirus 5, Fibroblast, read-out: IC50 (ug/ml) HCMV; for IC50 (ug/ml) HCMV: HCMV in human foreskin fibroblasts
In short: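 Human foreskin fibroblasts were infected with RV145 in the presence of inhibitor. β-glucuronidase under a viral promoter served as the replication marker. At 96 h post-infection, lysates in pH 7.0 phosphate with Triton X-100/sarkosyl were assayed colorimetrically or fluorometrically, and IC50 was estimated from varying inhibitor amounts.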

## O=C(Nc1ccc(NC(=S)Nc2ccc(-c3cc[nH]n3)c(Cl)c2)cc1)c1csnn1 [Example 991, [1,2,3]Thiadiazole-4-carboxylic acid (4-{3-[3-chloro-4-(1H-pyrazol-3-yl)-phenyl]-thioureido}-phenyl)-amide]
VZV strain Ellen
  IC50: > 10 µg/mL
  inhibition at 10 µg/mL: 3%
HSV-1
  IC50: > 10 µg/mL
[1]
  IC50: 0.022 µg/mL (≈ 0.0483 µM)

## O=C(Nc1ccc(NC(=S)Nc2cccc(C(F)(F)F)c2)cc1)c1ccco1 [Example 431]
VZV strain Ellen
  IC50 (ug/ml) VZV: >10 µg/mL
HSV-1
  IC50 (ug/ml) HSV: >10 µg/mL
[1]
  IC50 (ug/ml) HCMV: 0.06 µg/mL (≈ 0.148 µM)

## COc1cc(OC)c(NC(=S)Nc2ccc(NC(=O)c3sccc3Br)cc2)cc1Cl [Example 175]
VZV strain Ellen
  IC50 (ug/ml) VZV: >10 µg/mL
  % inhibition 10 ug/ml VZV: 24%
HSV-1
  IC50 (ug/ml) HSV: 2 µg/mL (≈ 3.8 µM)
[1]
  IC50 (ug/ml) HCMV: >10 µg/mL

## O=C(Nc1ccc(NC(=S)Nc2ccc(F)c(Cl)c2)cc1)c1ccco1 [Example 969, Furan-2-carboxylic acid {4-[3-(3-chloro-4-fluoro-phenyl)-thioureido]-phenyl}-amide]
VZV strain Ellen
  IC50: > 10 µg/mL
  inhibition at 10 µg/mL: 40%
HSV-1
  IC50: > 10 µg/mL
[1]
  IC50: 0.03 µg/mL (≈ 0.077 µM)

## O=C(Nc1ccc(NC(=S)Nc2ccccc2Cl)cc1)c1csnn1 [Example 1006, [1,2,3]Thiadiazole-4-carboxylic acid {4-[3-(2-chloro-phenyl)-thioureido]-phenyl}-amide]
VZV strain Ellen
  IC50: > 10 µg/mL
  inhibition at 10 µg/mL: 13%
HSV-1
  IC50: > 10 µg/mL
[1]
  IC50: 0.2 µg/mL (≈ 0.513 µM)

## O=C(Nc1ccc(NC(=S)Nc2cc(Cl)cc(Cl)c2)cc1)c1csnn1 [Example 921, [1,2,3]Thiadiazole-4carboxylic acid {4-[3-(3,5-dichloro-phenyl)-thioureido]-phenyl}-amide]
VZV strain Ellen
  IC50: 7 µg/mL (≈ 16.5 µM)
  inhibition at 10 µg/mL: 85%
HSV-1
  IC50: 8 µg/mL (≈ 18.9 µM)
[1]
  IC50: 0.05 µg/mL (≈ 0.118 µM)

## CSc1ccc(NC(=S)Nc2ccc(NC(=O)c3ccco3)cc2)cc1Cl [Example 897, Furan-2-carboxylic acid {4-[3-(3-chloro-4-methylsulfanyl-phenyl)-thioureido]-phenyl}-amide]
VZV strain Ellen
  IC50: > 10 µg/mL
  inhibition at 10 µg/mL: 62%
HSV-1
  IC50: > 10 µg/mL
[1]
  IC50: 0.037 µg/mL (≈ 0.0885 µM)

## CN(C)c1c(Cl)cccc1NC(=S)Nc1ccc(NC(=O)c2csnn2)cc1 [Example 503]
VZV strain Ellen
  IC50 (ug/ml) VZV: >10 µg/mL
  % inhibition 10 ug/ml VZV: 64%
HSV-1
  IC50 (ug/ml) HSV: 8 µg/mL (≈ 18.5 µM)
[1]
  IC50 (ug/ml) HCMV: 0.053 µg/mL (≈ 0.122 µM)

## O=C(Nc1ccc(NC(=S)NCCc2cc(F)cc(C(F)(F)F)c2)cc1)c1csnn1 [Example 762]
VZV strain Ellen
  IC50 (ug/ml) VZV: 1.5 µg/mL (≈ 3.19 µM)
HSV-1
  IC50 (ug/ml) HSV: >10 µg/mL
[1]
  IC50 (ug/ml) HCMV: 0.002 µg/mL (≈ 0.00426 µM)

## O=C(Nc1ccc(NC(=S)Nc2ccc(Cl)c(C(F)(F)F)c2)cc1)c1ccccn1 [Example 379]
VZV strain Ellen
  IC50 (ug/ml) VZV: >10 µg/mL
  % inhibition 10 ug/ml VZV: 27%
HSV-1
  IC50 (ug/ml) HSV: >10 µg/mL
[1]
  IC50 (ug/ml) HCMV: >10 µg/mL

## CN(C)c1cccc(NC(=S)Nc2ccc(NC(=O)c3ccco3)cc2)c1 [Example 455]
VZV strain Ellen
  IC50 (ug/ml) VZV: >10 µg/mL
  % inhibition 10 ug/ml VZV: 30%
HSV-1
  IC50 (ug/ml) HSV: >10 µg/mL
[1]
  IC50 (ug/ml) HCMV: 0.3 µg/mL (≈ 0.788 µM)

## CC(=O)Nc1cccc(NC(=S)Nc2ccc(NC(=O)c3ccco3)cc2)c1 [Example 462]
VZV strain Ellen
  IC50 (ug/ml) VZV: >10 µg/mL
  % inhibition 10 ug/ml VZV: 6%
HSV-1
  IC50 (ug/ml) HSV: >10 µg/mL
[1]
  IC50 (ug/ml) HCMV: 1 µg/mL (≈ 2.54 µM)

## CC(=O)Nc1ccc(NC(=S)Nc2cc(Cl)c(Cl)c(Cl)c2)cc1 [Example 986, N-{4-[3-(3,4,5-Trichloro-phenyl)-thioureido]-phenyl}-acetamide]
VZV strain Ellen
  inhibition at 10 µg/mL: 5%
HSV-1
  IC50: > 10 µg/mL
[1]
  IC50: 0.031 µg/mL (≈ 0.0798 µM)

## Nc1ccc(Cl)cc1NC(=S)Nc1ccc(NC(=O)c2ccco2)cc1 [Example 440]
VZV strain Ellen
  IC50 (ug/ml) VZV: 9 µg/mL (≈ 23.3 µM)
HSV-1
  IC50 (ug/ml) HSV: 1 µg/mL (≈ 2.58 µM)
[1]
  IC50 (ug/ml) HCMV: 0.3 µg/mL (≈ 0.775 µM)

## O=C(Nc1ccc(NC(=S)NCc2ccccc2)cc1)c1csnn1 [Example 539]
VZV strain Ellen
  IC50 (ug/ml) VZV: >10 µg/mL
HSV-1
  IC50 (ug/ml) HSV: >10 µg/mL
[1]
  IC50 (ug/ml) HCMV: 0.036 µg/mL (≈ 0.0974 µM)
